Literature values as cited in patent US10717749B2, “Macrocyclic sulfondiimine compounds” (BAYER PHARMA AKTIENGESELLSCHAFT, priority 2015, dated 2020).

Settings: in vivo; cited from earlier work

## C[N+]1(C)[C@@H]2C[C@@H](OC(=O)C(O)(c3cccs3)c3cccs3)C[C@H]1[C@@H]1O[C@@H]12 [tiotropium]
  duration of protection against bronchospasms: more than 6 hours
